Earlier results on one compound are cited in patent US6620433B2, “Dispersible and soluble galenic paracetamol formulation, method for its preparation and its applications” (Laboratorios Belmac, S.A., priority 2000, dated 2003).

One data set relates to mice. The settings on record: interperitoneal administration.

For `CC(=O)Nc1ccc(O)cc1` [Paracetamol, N-(4-hydroxyphenyl) acetamide], where the note is “cold water”, the “solubility in cold water” value is “barely soluble”. Under “ether”, the solubility in ether entry is on record as “barely soluble”. Moreover, for the setting “organic solvents”, the “solubility in methanol, ethanol, dimethylformamide, ethylene dichloride, acetone and ethyl acetate” value was “soluble”. For the same compound, the “solubility in petroleum ether, pentane and benzene” value (petroleum ether, pentane, benzene) is recorded as “practically insoluble”. Also, in the data set on mice, the LD50 in mice is 500 mg/kg.
